What all share (format): cell-based
Test [1] has as its system mouse macrophages (RAW264.7). Nature of the test: Lipopolysaccharide-induced NO secretion in macrophages (Griess). To be noted: Mus musculus, RAW264.7, 24 h, RAW264.7, LPS 1 μg/ml, a/b isomers given as first/second symbol, read-out: IC50 (μM), inhibition of lipopolysaccharide-induced NO secretion in macrophages. As for the experimental part: The effects of the compounds of the present application on the lipopolysaccharide-induced NO secretion in macrophage was tested Principle: Anti-inflammatory drug activity screening is to detect the inhibitory effect of compounds on NO production in the mouse macrophages (RAW264.7). When immune cells are stimulated by microbial endotoxin, inflammatory mediators, etc., a large amount of induced NO synthase (iNOS) is produced, and thus NO is generated for immune response. Accordingly, the inhibition of NO production can serve as a direct indicator of the anti-inflammatory activity of the compound. The activity of the compound to inhibit NO production at the cellular level is directly evaluated in the abovementioned test model, thereby reflecting the anti-inflammatory activity of the compound. In this experiment, the content of NO in the medium was detected by Gris kit (Molecular probes, G-7921). Macrophages (Raw264.7) were cultured in DMEM medium containing 10% fetal bovine serum, with the cell concentration adjusted. The cells were seeded in 24-well cell culture plates, cultured in an incubator, and the test samples in different concentrations were added every other day. The blank medium was used as a blank control, and commercially available indomethacin and resveratrol were employed as positive controls. After the addition of lipopolysaccharide (LPS, 1 μg/ml), incubation was performed for 24 hours. Then the supernatant culture solution was taken, to […] reagent was added, and the absorbance value was measured by a microplate reader at 548 nm. Inhibition rate=([…])×100%.

Test [2] relates to human lung fibroblasts HFL1. Nature of the test: Anti-fibrosis activity test: inhibition of proliferation of human lung fibroblasts HFL1 (CCK-8). To be noted: Homo sapiens, HFL1, 48 h, human lung fibroblasts HFL1, CCK-8, 48 hours. The method in brief:
(§1)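 A CCK-8 proliferation assay was run: cells at 2×10^4 cells/mL, adherent for 24 h, then incubated 48 h at 37° C with compound dilutions. A450 was recorded 2 h after CCK-8 addition and converted to percent inhibition versus blank for IC50 determination.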

The subject of test [3] is human dermal fibroblasts CCC-ESF-1. Nature of the test: Anti-fibrosis activity test: inhibition of proliferation of human dermal fibroblasts CCC-ESF-1 (CCK-8). To be noted: Fibroblast; human dermal fibroblasts CCC-ESF-1, CCK-8, 48 hours. The method in brief:
as §1

The test system of test [4] is human hepatic stellate cells LX-2. Nature of the test: Anti-fibrosis activity test: inhibition of proliferation of human hepatic stellate cells LX-2 (CCK-8). The note with it: Homo sapiens, 48 h, human hepatic stellate cells LX-2, CCK-8, 48 hours. The method in brief:
as §1

For test [5], the system named is human fibrosarcoma cells HT-1080. Nature of the test: Anti-fibrosis activity test: inhibition of proliferation of human fibrosarcoma cells HT-1080 (CCK-8). The note with it: Homo sapiens, HT-1080, 48 h, human fibrosarcoma cells HT-1080, CCK-8, 48 hours. The method in brief: as §1
The subject of test [6] is BHK-21 cells. Nature of the test: Anti-fibrosis activity test: inhibition of BHK-21 cell proliferation (CCK-8). The note with it: Mesocricetus auratus, BHK-21, 48 h, CCK-8, 48 hours after administration. The method in brief:
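Proliferation of BHK-21 cells is measured by CCK-8 at 450 nm following 48 h compound exposure at several concentrations. Inhibition is expressed relative to blank control and IC50 is computed from it.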

Test [7] has as its system human embryonic lung fibroblast IMR-90. Nature of the test: Anti-fibrosis activity test: inhibition of proliferation of human embryonic lung fibroblast IMR-90 (CCK-8). The note with it: human embryonic lung fibroblast IMR-90, CCK-8, 48 hours. The method in brief:
as §1

For test [8], the system named is cardiac fibroblast RAT-iCell-C002. Nature of the test: Anti-fibrosis activity test: inhibition of proliferation of cardiac fibroblast RAT-iCell-C002 (CCK-8). The note with it: Cardiac fibroblast, 48 h, cardiac fibroblast RAT-iCell-C002, CCK-8, 48 hours. The method in brief: as §1

This note sets out measurements from US11040028B2, “Penicinotam derivative, preparation method and use thereof” (OCEAN UNIVERSITY OF CHINA, priority 2017, dated 2021).

Where only a bound is given, the exact number is not on record here.

As to `O=C1c2c(n(-c3ccc(Cl)cc3)c3ccc(OC(F)(F)F)cc3c2=O)-c2cccn21` [Compound 300a, 4-(4-Chlorophenyl)-7-(trifluoromethoxy)-9H-pyrrolizino[1,2-b]quinoline-9,10(4H)-dione], the half-inhibitory concentration (IC50) in test [1] lay within 0.1 to 1 µM; in test [2], 0.05 to 5 mM; in test [3], 0.05 to 5 mM; in test [4], 0.05 to 5 mM; in test [5], 0.05 to 5 mM; in test [6], 5 to 20 mM. In addition, the IC50 in test [7] and in test [8] was 0.05 to 5 mM throughout.
With `O=C1c2c(nc3ccc(OC(F)(F)F)cc3c2Oc2ccc(Cl)cc2)-c2cccn21` [Compound 300b, 9-(4-chlorophenoxy)-7-(trifluoromethoxy)-10H-pyrrolizino[1,2-b]quinolin-10-one], the IC50 in test [1] fell in the range of 1 to 10 µM; in test [2], 0.05 to 5 mM; in test [3] it was 0.05 to 5 mM; in test [4], 0.05 to 5 mM; in test [5] it was 0.05 to 5 mM; in test [6], 0.05 to 5 mM. In addition, the 50% inhibitory concentration (IC50) in test [7] and in test [8] was 0.05 to 5 mM in each case.
Take `CCn1c2c(c(=O)c3cc(F)c(N4CCNCC4)cc31)C(=O)n1cccc1-2` [Compound 329a, 4-Ethyl-7-fluoro-6-(piperazin-1-yl)-9H-pyrrolizino[1,2-b]quinoline-9,10(4H)-dione]: the IC50 in test [1] fell in the range of 1 to 10 µM; in test [2] it was 0.05 to 5 mM; in test [3], 0.05 to 5 mM; in test [4], 0.05 to 5 mM; in test [5], 0.05 to 5 mM; in test [6] it was 0.05 to 5 mM. The IC50 in test [7] fell in the range of 0.05 to 5 mM; in test [8], 5 to 20 mM.
With `CCOc1c2c(nc3cc(N4CCNCC4)c(F)cc13)-c1cccn1C2=O` [Compound 329b, 9-ethoxy-7-fluoro-6-(piperazin-1-yl)-10H-pyrrolizino[1,2-b]quinolin-10-one], the IC50 fell in the range of 1 to 10 µM in test [1]; 0.05 to 5 mM in test [2]; 0.05 to 5 mM in test [3]; 0.05 to 5 mM in test [4]; 0.05 to 5 mM in test [5]; 0.05 to 5 mM in test [6]. Also, the concentration for half-maximal inhibition (IC50) in test [7] was 0.05 to 5 mM; in test [8] it was less than 0.05 mM.
For `CC(C)n1c2c(c(=O)c3cc(F)c(N4CCNCC4)cc31)C(=O)n1cccc1-2` [Compound 331a, 7-Fluoro-4-isopropyl-6-(piperazin-1-yl)-9H-pyrrolizino[1,2-b]quinoline-9,10(4H)-dione], the 50% inhibitory concentration (IC50) in test [1] fell in the range of 1 to 10 µM; in test [2], 0.05 to 5 mM; in test [3], 0.05 to 5 mM; in test [4], 0.05 to 5 mM; in test [5], 0.05 to 5 mM; in test [6], 0.05 to 5 mM. Besides, the IC50 in test [7] and in test [8] was 0.05 to 5 mM in each case.
In the case of `CC(C)Oc1c2c(nc3cc(N4CCNCC4)c(F)cc13)-c1cccn1C2=O` [Compound 331b, 7-fluoro-9-isopropoxy-6-(piperazin-1-yl)-10H-pyrrolizino[1,2-b]quinolin-10-one], the IC50 is 1 to 10 µM in test [1]; 0.05 to 5 mM in test [2]; 0.05 to 5 mM in test [3]; 0.05 to 5 mM in test [4]; less than 0.05 mM in test [5]; 0.05 to 5 mM in test [6]. Further, the IC50 in test [7] and in test [8] was 0.05 to 5 mM throughout.
Take `O=C1c2c(n(C3CC3)c3cc(N4CCNCC4)c(F)cc3c2=O)-c2cccn21` [Compound 340a, 4-Cyclopropyl-7-fluoro-6-(piperazin-1-yl)-9H-pyrrolizino[1,2-b]quinoline-9,10(4H)-dione]: the half-inhibitory concentration (IC50) was 0.1 to 1 µM in test [1]; 0.05 to 5 mM in test [2]; 0.05 to 5 mM in test [3]; 0.05 to 5 mM in test [4]; 5 to 20 mM in test [5]; 0.05 to 5 mM in test [6]. In addition, the IC50 in test [7] and in test [8] was 0.05 to 5 mM in each case.
In the case of `O=C1c2c(nc3cc(N4CCNCC4)c(F)cc3c2OC2CC2)-c2cccn21` [Compound 340b, 9-cyclopropoxy-7-fluoro-6-(piperazin-1-yl)-10H-pyrrolizino[1,2-b]quinolin-10-one], the IC50 in test [1] is 1 to 10 µM; in test [2], 0.05 to 5 mM; in test [3], 0.05 to 5 mM; in test [4] it was 0.05 to 5 mM; in test [5] it was 0.05 to 5 mM; in test [6], 0.05 to 5 mM. Moreover, the half-inhibitory concentration (IC50) in test [7] and in test [8] was 0.05 to 5 mM throughout.
Take `O=C1c2c(n(C(=O)c3ccco3)c3cc(N4CCNCC4)c(F)cc3c2=O)-c2cccn21` [Compound 343a, 7-Fluoro-4-(furan-2-carbonyl)-6-(piperazin-1-yl)-9H-pyrrolizino[1,2-b]quinoline-9,10(4H)-dione]: the IC50 is 1 to 10 µM in test [1]; 0.05 to 5 mM in test [2]; 0.05 to 5 mM in test [3]; 0.05 to 5 mM in test [4]; less than 0.05 mM in test [5]; 0.05 to 5 mM in test [6]. For the same compound, the 50% inhibitory concentration (IC50) in test [7] and in test [8] was 0.05 to 5 mM throughout.
With `O=C(Oc1c2c(nc3cc(N4CCNCC4)c(F)cc13)-c1cccn1C2=O)c1ccco1` [Compound 343b, 7-fluoro-10-oxo-6-(piperazin-1-yl)-10H-pyrrolizino[1,2-b]quinolin-9-ylfuran-2-carboxylate], the half-maximal inhibitory concentration (IC50) in test [1] is 1 to 10 µM; in test [2] it was 0.05 to 5 mM; in test [3], 0.05 to 5 mM; in test [4], 0.05 to 5 mM; in test [5], 0.05 to 5 mM; in test [6], 0.05 to 5 mM. Also, the IC50 in test [7] and in test [8] was 0.05 to 5 mM in each case.
As for `O=C1c2c(n(CCO)c3cc(N4CCNCC4)c(F)cc3c2=O)-c2cccn21` [Compound 348a, 7-Fluoro-4-(2-hydroxyethyl)-6-(piperazin-1-yl)-9H-pyrrolizino[1,2-b]quinoline-9,10(4H)-dione], the half-maximal inhibitory concentration (IC50) in test [1] lay in the range of 1 to 10 µM; in test [2], 0.05 to 5 mM; in test [3], 0.05 to 5 mM; in test [4], 0.05 to 5 mM; in test [5], 0.05 to 5 mM; in test [6] it was 20 to 100 mM. Besides, the 50% inhibitory concentration (IC50) in test [7] and in test [8] was 0.05 to 5 mM throughout.
With `O=C1c2c(nc3cc(N4CCNCC4)c(F)cc3c2OCCO)-c2cccn21` [Compound 348b, 7-fluoro-9-(2-hydroxyethoxy)-6-(piperazin-1-yl)-10H-pyrrolizino[1,2-b]quinolin-10-one], the IC50 in test [1] is 1 to 10 µM; in test [2], 0.05 to 5 mM; in test [3], 0.05 to 5 mM; in test [4], less than 0.05 mM; in test [5] it was 0.05 to 5 mM; in test [6], 0.05 to 5 mM. For the same compound, the IC50 in test [7] and in test [8] was 0.05 to 5 mM in each case.
Turning to `C=CCn1c2c(c(=O)c3cc(F)c(N4CCNCC4)cc31)C(=O)n1cccc1-2` [Compound 349a, 4-Allyl-7-fluoro-6-(piperazin-1-yl)-9H-pyrrolizino[1,2-b]quinoline-9,10(4H)-dione], the IC50 in test [1] lay within 1 to 10 µM; in test [2], 0.05 to 5 mM; in test [3] it was 0.05 to 5 mM; in test [4] it was 0.05 to 5 mM; in test [5] it was 0.05 to 5 mM; in test [6] it was 0.05 to 5 mM. Moreover, the half-maximal inhibitory concentration (IC50) in test [7] and in test [8] was 0.05 to 5 mM throughout.
